Reference: patent US20250195536A1, “BICYCLOOCTANE KRAS INHIBITORS” (Incyte Corporation, priority 2023, published 2025)

Columns and labels:
KRAS G12D = KRAS G12D (Homo sapiens, UniProt P01116, G12D); assay: GDP-GTP exchange assay (KRAS G12D); format: biochemical; conditions: bodipy-GDP/GppNHp exchange with SOS1; 4 h pre-incubation, 2 h reaction;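 also: one dagger IC50 up to 100 nM and two daggers above 100 nM up to 1 μM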
Summary of the method: (§1)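 Bodipy-GDP-loaded KRAS (2.5 nM final) was pre-incubated 4 h at r.t. with inhibitor in Hepes pH 7.5 buffer with MgCl2, then exchange started with GppNHp (500 μM) and SOS1 (150 nM) final. Fluorescence (ex 485/em 520 nm) read after 2 h for G12D, 3 h for G12V; IC50 from four-parameter logistic fit.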

[1] = Caco2 assay (permeability, Papp A-B); format: in vitro ADME; conditions: human, Caco-2, absorptive direction (A-B), 50 μM test compound, 4% BSA in receiver
Summary of the method: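 Caco-2 monolayers, 22-25 days on Transwells, TEER 300 Ω·cm^2, dosed apically with 50 μM compound in HBSS; basolateral HBSS with 4% BSA. 120 min at 37 °C, samples quantified by LCMS; Papp (A-B) from receiver-side cumulative flux slope, donor volume, surface area and initial donor amount.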

KRAS G12V = KRAS G12V (Homo sapiens, UniProt P01116, G12V); assay: GDP-GTP exchange assay (KRAS G12V); format: biochemical; conditions: bodipy-GDP/GppNHp exchange with SOS1; 3 h incubation after GppNHp-SOS1;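 also: one dagger IC50 up to 100 nM and two daggers above 100 nM up to 1 μM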
KRAS G12V, sequence (P01116 1-188 isoform P01116-2 G12V): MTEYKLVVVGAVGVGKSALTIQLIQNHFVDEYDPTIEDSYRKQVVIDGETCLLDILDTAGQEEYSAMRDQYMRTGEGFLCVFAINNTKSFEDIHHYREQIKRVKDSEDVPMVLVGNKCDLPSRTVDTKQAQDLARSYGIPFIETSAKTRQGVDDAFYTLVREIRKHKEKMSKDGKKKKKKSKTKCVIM
Summary of the method: as §1

KRAS G12D, sequence (P01116 1-188 isoform P01116-2 G12D): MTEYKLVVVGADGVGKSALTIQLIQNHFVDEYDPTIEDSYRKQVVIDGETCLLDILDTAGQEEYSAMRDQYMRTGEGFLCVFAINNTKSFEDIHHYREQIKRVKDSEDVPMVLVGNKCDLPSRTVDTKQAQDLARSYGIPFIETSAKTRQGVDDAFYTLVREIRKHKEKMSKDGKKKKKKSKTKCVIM

Structure (SMILES)	G12D_exchange (KRAS_G12D exchange assay IC50) (KRAS G12D)	Papp A→B at 120 min, 50 μM [1] [×10⁻⁶ cm/s]	G12V_exchange (KRAS_G12V exchange assay IC50) (KRAS G12V)
Cc1nc2c(F)c(-c3cccc(Cl)c3Cl)c(CCC#N)cc2c2c1cc([C@H]1[C@H]3C[C@H](CN(c4nccc(C(F)(F)F)n4)C3)N1C(=O)C1CC1)n2[C@H]1[C@H]2CN[C@@H]1C2 (atropisomer, axis not shown; (Ra)) [Example 43, 3-((Ra)-1-((1R,4R,5S)-2-azabicyclo[2.1.1]hexan-5-yl)-2-((1S,5R,7R)-6-(cyclopropanecarbonyl)-3-(4-(trifluoromethyl)pyrimidin-2-yl)-3,6-diazabicyclo[3.2.1]octan-7-yl)-7-(2,3-dichlorophenyl)-6-fluoro-4-methyl-1H-pyrrolo[3,2-c]quinolin-8-yl)propanenitrile]	†	≤ 0.5	†
Cc1nc2c(F)c(-c3cccc(Cl)c3Cl)c(CCC#N)cc2c2c1cc([C@H]1[C@H]3C[C@H](CN(c4cnc(C(F)(F)F)cn4)C3)N1C(=O)C1CC1)n2[C@H]1[C@H]2CN[C@@H]1C2 (atropisomer, axis not shown; (Ra)) [Example 44, 3-((Ra)-1-((1R,4R,5S)-2-azabicyclo[2.1.1]hexan-5-yl)-2-((1S,5R,7R)-6-(cyclopropanecarbonyl)-3-(5-(trifluoromethyl)pyrazin-2-yl)-3,6-diazabicyclo[3.2.1]octan-7-yl)-7-(2,3-dichlorophenyl)-6-fluoro-4-methyl-1H-pyrrolo[3,2-c]quinolin-8-yl)propanenitrile]	†	≤ 0.5	†
Cc1nc2c(F)c(-c3cccc(Cl)c3Cl)c(CCC#N)cc2c2c1cc([C@H]1[C@H]3C[C@H](CN(c4ncc(OC(F)F)cn4)C3)N1C(=O)C1CC1)n2[C@H]1[C@H]2CN[C@@H]1C2 (atropisomer, axis not shown; (Ra)) [Example 45, 3-((Ra)-1-((1R,4R,5S)-2-azabicyclo[2.1.1]hexan-5-yl)-2-((1S,5R,7R)-6-(cyclopropanecarbonyl)-3-(5-(difluoromethoxy)pyrimidin-2-yl)-3,6-diazabicyclo[3.2.1]octan-7-yl)-7-(2,3-dichlorophenyl)-6-fluoro-4-methyl-1H-pyrrolo[3,2-c]quinolin-8-yl)propanenitrile]	†	≤ 0.5	†
Cc1nc2c(F)c(-c3cccc(Cl)c3Cl)c(CCC#N)cc2c2c1cc([C@H]1[C@H]3C[C@H](CN(c4ncccc4F)C3)N1C(=O)C1CC1)n2[C@H]1[C@H]2CN[C@@H]1C2 (atropisomer, axis not shown; (Ra)) [Example 46, 3-((Ra)-1-((1R,4R,5S)-2-azabicyclo[2.1.1]hexan-5-yl)-2-((1S,5R,7R)-6-(cyclopropanecarbonyl)-3-(3-fluoropyridin-2-yl)-3,6-diazabicyclo[3.2.1]octan-7-yl)-7-(2,3-dichlorophenyl)-6-fluoro-4-methyl-1H-pyrrolo[3,2-c]quinolin-8-yl)propanenitrile]	†	≤ 0.5	†
Cc1nc2c(F)c(-c3cccc(Cl)c3Cl)c(CCC#N)cc2c2c1cc([C@H]1[C@H]3C[C@H](CN(c4ncccc4C#N)C3)N1C(=O)C1CC1)n2[C@H]1[C@H]2CN[C@@H]1C2 (atropisomer, axis not shown; (Ra)) [Example 47, 2-((1S,5R,7R)-7-((Ra)-1-((1R,4R,5S)-2-azabicyclo[2.1.1]hexan-5-yl)-8-(2-cyanoethyl)-7-(2,3-dichlorophenyl)-6-fluoro-4-methyl-1H-pyrrolo[3,2-c]quinolin-2-yl)-6-(cyclopropanecarbonyl)-3,6-diazabicyclo[3.2.1]octan-3-yl)nicotinonitrile]	††	≤ 0.5	†
Cc1cccnc1N1C[C@@H]2C[C@H](C1)N(C(=O)C1CC1)[C@H]2c1cc2c(C)nc3c(F)c(-c4cccc(Cl)c4Cl)c(CCC#N)cc3c2n1[C@H]1[C@H]2CN[C@@H]1C2 (atropisomer, axis not shown; (Ra)) [Example 48, 3-((Ra)-1-((1R,4R,5S)-2-azabicyclo[2.1.1]hexan-5-yl)-2-((1S,5R,7R)-6-(cyclopropanecarbonyl)-3-(3-methylpyridin-2-yl)-3,6-diazabicyclo[3.2.1]octan-7-yl)-7-(2,3-dichlorophenyl)-6-fluoro-4-methyl-1H-pyrrolo[3,2-c]quinolin-8-yl)propanenitrile]	†	0.5 to 1	†
COc1cccnc1N1C[C@@H]2C[C@H](C1)N(C(=O)C1CC1)[C@H]2c1cc2c(C)nc3c(F)c(-c4cccc(Cl)c4Cl)c(CCC#N)cc3c2n1[C@H]1[C@H]2CN[C@@H]1C2 (atropisomer, axis not shown; (Ra)) [Example 49, 3-((Ra)-1-((1R,4R,5S)-2-azabicyclo[2.1.1]hexan-5-yl)-2-((1S,5R,7R)-6-(cyclopropanecarbonyl)-3-(3-methoxypyridin-2-yl)-3,6-diazabicyclo[3.2.1]octan-7-yl)-7-(2,3-dichlorophenyl)-6-fluoro-4-methyl-1H-pyrrolo[3,2-c]quinolin-8-yl)propanenitrile]	†	≤ 0.5	†
Cc1nc2c(F)c(-c3cccc(Cl)c3Cl)c(CCC#N)cc2c2c1cc([C@H]1[C@H]3C[C@H](CN(c4nccc(C(F)(F)F)c4F)C3)N1C(=O)C1CC1)n2[C@H]1[C@H]2CN[C@@H]1C2 (atropisomer, axis not shown; (Ra)) [Example 50, 3-((Ra)-1-((1R,4R,5S)-2-azabicyclo[2.1.1]hexan-5-yl)-2-((1S,5R,7R)-6-(cyclopropanecarbonyl)-3-(3-fluoro-4-(trifluoromethyl)pyridin-2-yl)-3,6-diazabicyclo[3.2.1]octan-7-yl)-7-(2,3-dichlorophenyl)-6-fluoro-4-methyl-1H-pyrrolo[3,2-c]quinolin-8-yl)propanenitrile]	††	≤ 0.5	†
Cc1ccnc(N2C[C@@H]3C[C@H](C2)N(C(=O)C2CC2)[C@H]3c2cc3c(C)nc4c(F)c(-c5cccc(Cl)c5Cl)c(CCC#N)cc4c3n2[C@H]2[C@H]3CN[C@@H]2C3)c1F (atropisomer, axis not shown; (Ra)) [Example 51, 3-((Ra)-1-((1R,4R,5S)-2-azabicyclo[2.1.1]hexan-5-yl)-2-((1S,5R,7R)-6-(cyclopropanecarbonyl)-3-(3-fluoro-4-methylpyridin-2-yl)-3,6-diazabicyclo[3.2.1]octan-7-yl)-7-(2,3-dichlorophenyl)-6-fluoro-4-methyl-1H-pyrrolo[3,2-c]quinolin-8-yl)propanenitrile]	†	0.5 to 1	†
Cc1ccc(F)c(N2C[C@@H]3C[C@H](C2)N(C(=O)C2CC2)[C@H]3c2cc3c(C)nc4c(F)c(-c5cccc(Cl)c5Cl)c(CCC#N)cc4c3n2[C@H]2[C@H]3CN[C@@H]2C3)n1 (atropisomer, axis not shown; (Ra)) [Example 52, 3-((Ra)-1-((1R,4R,5S)-2-azabicyclo[2.1.1]hexan-5-yl)-2-((1S,5R,7R)-6-(cyclopropanecarbonyl)-3-(3-fluoro-6-methylpyridin-2-yl)-3,6-diazabicyclo[3.2.1]octan-7-yl)-7-(2,3-dichlorophenyl)-6-fluoro-4-methyl-1H-pyrrolo[3,2-c]quinolin-8-yl)propanenitrile]	††	0.5 to 1	†
Cc1cnc(N2C[C@@H]3C[C@H](C2)N(C(=O)C2CC2)[C@H]3c2cc3c(C)nc4c(F)c(-c5cccc(Cl)c5Cl)c(CCC#N)cc4c3n2[C@H]2[C@H]3CN[C@@H]2C3)c(F)c1 (atropisomer, axis not shown; (Ra)) [Example 53, 3-((Ra)-1-((1R,4R,5S)-2-azabicyclo[2.1.1]hexan-5-yl)-2-((1S,5R,7R)-6-(cyclopropanecarbonyl)-3-(3-fluoro-5-methylpyridin-2-yl)-3,6-diazabicyclo[3.2.1]octan-7-yl)-7-(2,3-dichlorophenyl)-6-fluoro-4-methyl-1H-pyrrolo[3,2-c]quinolin-8-yl)propanenitrile]	†	0.5 to 1	†
